{"source": "patent US20030105167A1", "about": "“Treatment of opthalmic diseases” (priority 2001, published 2003)", "key": {"retinal ganglion cells": {"system": "retinal ganglion cells", "test": "Survival of axotomized retinal ganglion cells after intraorbital optic nerve transection", "assay_type": "in vivo", "conditions": "ovarectomized adult female rats, twice daily subcutaneous injection in oil, two days prior to eight days following transection; counted after an additional 4 weeks", "method": "The drugs were dissolved in sesame oil (Penta) at 100 ug/ml. Adult female rats to be used in these experiments were first ovarectomized. Rats were then subjected to intraorbital transection of the optic nerve, a procedure that leads to progressive degeneration of the majority of retinal ganglion cells. Cells survive for a few days and then die abruptly such that by one week only 50% survive and by two weeks only 10% survive. Axotomy is well known to lead to the death of retinal ganglion cells by an apoptotic process, causing classical cytochemical alterations characteristic of programmed cell death.\nFrom two days prior to eight days following optic nerve transactions, 17β-estradiol, ent-17β-estradiol, or appropriate amount of vehicle control sample was administered to the animals by a twice daily subcutaneous injection of compound in oil at 100 ug/ml (see above), such that the final concentration delivered was 100 ug/. If the protective compounds to be used are in a water soluble formulation, they can, alternatively, be delivered by a single intravitreal injection. […]\nAfter an additional 4 weeks, the retinal ganglial cells were labeled by retrograde staining with the carbocyanine dye, 4Di-10Asp, which was applied to the nerve stump. Three days later animals were sacrificed and surviving retinal cells were counted in retinal whole mounts. […]"}, "[1]": {"system": "Transformed rat retinal ganglion cells (RGC-5 cells)", "test": "FRET assay of Ca+2-induced ΔΨm collapse in transformed retinal ganglion cells", "assay_type": "cell-based", "conditions": "FIG. 2; for extent of mitochondrial failure at the highest Ca+2 concentration: P<0.05 via ANOVA; for extent of mitochondrial collapse compared to buffer-treated controls: compound 5 minutes prior to Ca+2", "from_the_text": "Transformed rat retinal ganglion cells (RGC-5 cells) were produced by transforming Sprague-Dawley rat retinal cells from postnatal day I rats with replication incompetent Ψ2 EIA virus and was originally established to help illuminate the basic mechanisms underlying RGC apoptosis in glaucoma (Krishnomoorthy, et al., 2001). The cells express the specific cellular marker, Thy-1, consistent with their retinal ganglion cell origin. Confirmation of Thy-1 expression was made by RT-PCR, immunocytochemistry and immunoblot analysis. […] The toxicity response with glutamate has an EC50 of about 50 uM. Importantly, transformed RGC cells undergo TUNEL-positive apoptotic-mediated cell death upon serum deprivation, indicating the presence of classical apoptosis pathways induced by mitochondrial dysfunction and/or failure.\nPossible mitochondrial responses of our compounds are evaluated in intact RGC-5 cells using an assay for mitochondrial ΔΨm which is based on fluorescence energy transfer (FRET) between two dyes that colocalize to the mitochondria. The FRET assay circumvents the confounding variables of plasma membrane potential and the low flourcscence efficiency typical of single potentiometric dyes (Dykens and Stout, 2001). Transformed retinal ganglion cells (RGC-5) were plated at a concentration of 60K cells/well twenty-four hours prior to the experiment. The cells were permeabilized in place with 0.08% digitonin. Cells were exposed to 17β-estradiol, 17α-estradiol, and a non-hormonal PPC, Compound H (see Example 5), for 5 minutes prior to the addition of Ca^+2.\nThe excitation dye in the FRET ΔΨm assay is nonyl acridine orange (NAO). NAO is an exceptionally selective stain for cardiolipin, a lipid found intracellularly almost exclusively (>99%) in the mitochondrial inner membrane. Its staining of the inner membrane is independent of ΔΨm. The second dye is tetramethylrhodamine (TMR), a potentiometric dye that is sequestered into the mitochondrial matrix as a Nernstian function of ΔΨm and imposed concentration. It is the specificity of NAO staining for cardiolipin, combined with the absolute prerequisite for close proximity of both dyes, that allows this FRET assay to report ΔΨm without interference from plasma membrane potential.\nBecause uptake and retention of TMR depends on ΔΨm, at a given dye concentration, the extent of quenching of NAO by TMR reflects the magnitude of ΔΨm. Dissipation of ΔΨm, in response to […], elevated Ca+2 load, or respiratory […], results in efflux of TMR from the mitochondrion. The corresponding loss of proximity abolishes quenching of NAO, so that loss of ΔΨm is detected as an increase in NAO fluorescence."}, "cell culture models": {"system": "cell culture models", "conditions": "doses as low as; cited from earlier work"}, "[2]": {"system": "SHSY-5Y neuroblastoma cells", "test": "FRET assay of Ca+2-induced mitochondrial membrane potential (ΔΨm) collapse in neuroblastoma cells", "assay_type": "cell-based", "conditions": "FIG. 1; right shift of dose response curve compared to control", "method": "With reference to FIG. 1, mitochondria rapidly take up exogenous Ca^+2 to a maximum value before undergoing an irreversible loss of ΔΨm. ΔΨm was monitored after exposure to Ca^+2 concentrations ranging from 0 to 50 uM using a fluorescence resonance energy transfer (FRET) assay (Dykens and Stout, 2001). Cells were preincubated with 17β-estradiol and 17α-estradiol at 0.5 uM for 2.5 hrs. prior to Ca^+2 challenge, which was imposed by adding Ca^+2 directly to cells that had been permeabilized with digitonin (0.008%) final concentration, 5 min). The response, calculated as area under the curve, was plotted versus log Ca^+2 concentration using sigmoid regression analysis.\nThe excitation dye in the FRET ΔΨm assay is nonyl acridine orange (NAO). NAO is an exceptionally selective stain for cardiolipin, a lipid found intracellularly almost exclusively (>99%) in the mitochondrial inner membrane. Its staining of the inner membrane is independent of ΔΨm. […]\nBecause uptake and retention of TMR depends on ΔΨm, at a given dye concentration, the extent of quenching of NAO by TMR reflects the magnitude of ΔΨm. […] The corresponding loss of proximity abolishes quenching of NAO, so that loss of ΔΨm is detected as an increase in NAO fluorescence."}, "retinal ganglion layer": {"system": "retinal ganglion layer", "conditions": "administered prior to the insult; several days following reperfusion; cited from earlier work"}, "[3]": {"system": "mouse HT-22 hippocampal cells", "test": "Protection against glutamate toxicity, calcein AM viability", "assay_type": "cell-based", "conditions": "glutamate 10 mM, 16 hours, representative study; read-out: Calculated EC50 for protection of cell viability", "method": "For instance, in this study, mouse HT-22 hippocampal cells were cultured in DMEM supplemented with 10% fetal calf serum. Cells were plated and simultaneously treated with glutamate (10 mM) and one of the test compounds individually, for instance compound H (also referred to as Compound 4565 in FIG. 2 and one of many protective PPCs disclosed in PCT publications WO02/36605 and WO00/63228), below or positive control 17β-estradiol (E), at various doses between 10 nM and 10 µM. After 16 hours, cell viability was determined using the calcein AM fluorescence (Excitation/Emission 485/530 […]) in a Bio-Tex Microplate Fluorescence Reader."}, "[4]": {"system": "Trabecular meshwork cells", "test": "Survival of primary trabecular meshwork cells under toxic conditions (live-dead dyes)", "assay_type": "cell-based", "conditions": "hydrogen peroxide 100 uM, 24 hours, compound 2nM", "method": "Trabecular meshwork cells used here were grown from fresh explants obtained from normal donors according to the procedures described in Agarwal et al., (1999) Exp Eye Res., Vol. 68, pp. 583 90 and Hogg et al., (2000) Invest Ophthalmol Vis. Sci., Vol. 41, pp. 1091-8. Cells were toxic conditions by exposure to hydrogen peroxide at 100 uM for 24 hours, which typically kills at least 50% of cells. With different batches of cells, the hydrogen peroxide concentration necessary to obtain 50% cell death frequently needs to be determined empirically. Trabecular cell viability was assessed using commercially available live-dead dyes. Other stains such as stains for DNA fragmentation or annexin binding are also suitable.\nCompounds C and D, above, were initially dissolved at lmg/ml in absolute ethanol and diluted in culture medium to a final concentration of 2nM. To control for possible ethanol effects in the treated wells, all batches of media used here as were supplemented with absolute ethanol at appropriate concentrations. Cultured trabecular cells were incubated under toxic conditions with either compound C, compound D or no compound added for a period of 24 hours. Trabecular cell viability was assessed using commercially available live-dead dyes."}, "[5]": {"system": "Human retinal pigment epithelial cells (RPE340 cells)", "test": "Survival of retinal pigment epithelial cells under hyperoxia (Trypan blue exclusion)", "assay_type": "cell-based", "conditions": "40% O2 hyperoxia, 5 days, compound 2 nM", "method": "Human retinal pigment epithelial cells (RPE340 cells) were grown and subjected to conditions of hyperoxia according to Honda et al., (2001) Invest Ophthalmol Vis. Sci., Vol. 42, pp. 2139-44. The cells were subjected to either 40% O2 or 20% O2 (control) for the duration of the experiment. These conditions are known to induce apoptotic cell death.\nCompounds A and B, above, were initially dissolved at 1 mg/ml in absolute ethanol and diluted in culture medium to a final concentration of 2 nM. To control for possible ethanol effects in the treated wells, all batches of media used here were supplemented with absolute ethanol at appropriate concentrations. Cells were incubated under hyperoxic conditions with either compound A, compound B or no compound added for a period of 5 days. Effects on cell viability and growth were monitored by Trypan blue exclusion."}, "[6]": {"system": "Transformed rat retinal ganglion cells (RGC-5 cells)", "conditions": "read-out: EC50 of toxicity response; cited from earlier work"}}, "data": [{"smiles": "C[C@@]12CC[C@H]3c4ccc(O)cc4CC[C@@H]3[C@H]1CC[C@H]2O", "note": "(single isomer, unassigned; ent-17) [ent-17β-estradiol]", "values": [{"measurement": "number of surviving retinal ganglial cells compared to the controls", "setting": "retinal ganglion cells", "result": 3, "unit": "fold"}]}, {"smiles": "C[C@]12CC[C@@H]3c4ccc(O)cc4CC[C@H]3[C@@H]1CC[C@H]2O", "note": "[17α-estradiol]", "values": [{"measurement": "extent of mitochondrial failure at the highest Ca+2 concentration", "setting": "[1]", "result": "significantly lowered"}, {"measurement": "extent of mitochondrial collapse compared to buffer-treated controls", "setting": "[1]", "result": "moderated"}, {"measurement": "dose giving substantial cytoprotection", "setting": "cell culture models", "result": 0.2, "unit": "nM"}, {"measurement": "amount of Ca+2 required to induce ΔΨm collapse", "setting": "[2]", "result": "substantially increase"}]}, {"smiles": "C[C@]12CC[C@@H]3c4ccc(O)cc4CC[C@H]3[C@@H]1CC[C@@H]2O", "note": "[17β-estradiol]", "values": [{"measurement": "extent of mitochondrial failure at the highest Ca+2 concentration", "setting": "[1]", "result": "significantly lowered"}, {"measurement": "extent of mitochondrial collapse compared to buffer-treated controls", "setting": "[1]", "result": "moderated"}, {"measurement": "dose giving substantial cytoprotection", "setting": "cell culture models", "result": 0.2, "unit": "nM"}, {"measurement": "cell density in the retinal ganglion layer", "setting": "retinal ganglion layer", "result": "significantly higher"}, {"measurement": "number of surviving retinal ganglial cells compared to the controls", "setting": "retinal ganglion cells", "result": 3, "unit": "fold"}, {"measurement": "amount of Ca+2 required to induce ΔΨm collapse", "setting": "[2]", "result": "substantially increase"}, {"measurement": "EC50", "setting": "[3]", "result": 2.2, "unit": "µM"}]}, {"smiles": "C[C@]12CC[C@@H]3c4cc(C56CC7CC(CC(C7)C5)C6)c(O)cc4CC[C@H]3[C@@H]1CCC2=O", "note": "[C, 2-(1-Adamantyl)-3-hydroxyestra-1,3, 5 (10)-trien-17-one]", "values": [{"measurement": "survival of trabecular cells", "setting": "[4]", "result": "significantly improve survival"}]}, {"smiles": "CC(C)(C)c1cc2c(cc1O)CC[C@@H]1[C@@H]2CC[C@]2(C)C(=O)CC[C@@H]12", "note": "[D, 2-(1-tertbutyl)-3-hydroxyestra-1,3, 5 (IO)-trien-17-one]", "values": [{"measurement": "survival of trabecular cells", "setting": "[4]", "result": "significantly improve survival"}]}, {"smiles": "C[C@]1(CO)CC[C@@H]2c3ccc(O)cc3CC[C@H]2C1", "note": "[compound A, [2S-(2a, 4aα, 10aβ)]-1,2,3,4,4a,9,10,10a-octahydro-7-hydroxy-2-methyl-2-phenanthrenemethanol]", "values": [{"measurement": "protection from cell death", "setting": "[5]", "result": "protect these cells from cell death"}]}, {"smiles": "C[C@]1(C=O)CC[C@@H]2c3ccc(O)cc3CC[C@H]2C1", "note": "[compound B, [2S-(2a, 4aα, 10aβ)]-1,2,3,4,4a, 9, 10, 10a-octahydro-7-hydroxy-2-methyl-2-phenanthrenecarboxaldehyde]", "values": [{"measurement": "protection from cell death", "setting": "[5]", "result": "protect these cells from cell death"}]}, {"smiles": "N[C@@H](CCC(=O)O)C(=O)O", "note": "[glutamate]", "values": [{"measurement": "EC50", "setting": "[6]", "result": "~50", "unit": "µM"}]}]}
